According to PubChem BioAssay (NCI):
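These data come from cells grown in 96-well plates and exposed to compound for 48 hours at five concentrations. Abbreviation: GI50, concentration required for 50% inhibition of growth. Definition used: TGI = concentration required for complete inhibition of growth.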

Columns and labels:
Assay in all cases: NCI-60 cell line screen, 48 h; in the data active = GI50 below about 0.43 µM; inactive = the rest
A498 renal = tested on: A498 renal
A549 NSCLC = tested on: A549 NSCLC
ACHN renal = tested on: ACHN renal
BT-549 breast = tested on: BT-549 breast
CAKI-1 renal = tested on: CAKI-1 renal
CCRF-CEM leukemia = tested on: CCRF-CEM leukemia
COLO 205 colon = tested on: COLO 205 colon
DU-145 prostate = tested on: DU-145 prostate
EKVX NSCLC = tested on: EKVX NSCLC
HCC-2998 colon = tested on: HCC-2998 colon
HCT-15 colon = tested on: HCT-15 colon
HL-60(TB) leukemia = tested on: HL-60(TB) leukemia
HOP-92 NSCLC = tested on: HOP-92 NSCLC
HS 578T breast = tested on: HS 578T breast
HT29 colon = tested on: HT29 colon
IGROV1 ovarian = tested on: IGROV1 ovarian
K-562 leukemia = tested on: K-562 leukemia
KM12 colon = tested on: KM12 colon
LOX IMVI melanoma = tested on: LOX IMVI melanoma
MALME-3M melanoma = tested on: MALME-3M melanoma
MCF7 breast = tested on: MCF7 breast
MDA-MB-435 = tested on: MDA-MB-435
NCI-H226 lung = tested on: NCI-H226 lung
NCI-H23 lung = tested on: NCI-H23 lung
NCI-H460 lung = tested on: NCI-H460 lung
NCI-H522 lung = tested on: NCI-H522 lung
NCI/ADR-RES ovarian = tested on: NCI/ADR-RES ovarian
OVCAR-3 ovarian = tested on: OVCAR-3 ovarian
OVCAR-4 ovarian = tested on: OVCAR-4 ovarian
OVCAR-5 ovarian = tested on: OVCAR-5 ovarian
OVCAR-8 ovarian = tested on: OVCAR-8 ovarian
PC-3 prostate = tested on: PC-3 prostate
RPMI-8226 leukemia = tested on: RPMI-8226 leukemia
RXF 393 renal = tested on: RXF 393 renal
SF-268 CNS = tested on: SF-268 CNS
SF-295 CNS = tested on: SF-295 CNS
SF-539 CNS = tested on: SF-539 CNS
SK-MEL-2 melanoma = tested on: SK-MEL-2 melanoma
SK-MEL-28 melanoma = tested on: SK-MEL-28 melanoma
SK-MEL-5 melanoma = tested on: SK-MEL-5 melanoma
SK-OV-3 ovarian = tested on: SK-OV-3 ovarian
SN12C renal = tested on: SN12C renal
SNB-19 CNS = tested on: SNB-19 CNS
SNB-75 CNS = tested on: SNB-75 CNS
SW-620 colon = tested on: SW-620 colon
T-47D breast = tested on: T-47D breast
TK-10 renal = tested on: TK-10 renal
U251 CNS = tested on: U251 CNS
UACC-257 melanoma = tested on: UACC-257 melanoma
UACC-62 melanoma = tested on: UACC-62 melanoma
UO-31 renal = tested on: UO-31 renal

OCCCNc1nc(=S)[nH]c2[nH]ncc12
84.5 µM: TGI (LOX IMVI melanoma)
72.6 µM: TGI (NCI-H226 lung)
92.2 µM: TGI (SF-268 CNS)
> 100 µM: TGI (A549 NSCLC) | TGI (ACHN renal) | TGI (BT-549 breast) | TGI (CAKI-1 renal) | TGI (CCRF-CEM leukemia) | TGI (COLO 205 colon) | TGI (DU-145 prostate) | TGI (EKVX NSCLC) | TGI (HCC-2998 colon) | TGI (HCT-15 colon) | TGI (HL-60(TB) leukemia) | TGI (HOP-92 NSCLC) | TGI (HT29 colon) | TGI (IGROV1 ovarian) | TGI (K-562 leukemia) | TGI (KM12 colon) | TGI (MALME-3M melanoma) | TGI (MDA-MB-435) | TGI (NCI-H23 lung) | TGI (NCI-H460 lung) | TGI (NCI-H522 lung) | TGI (NCI/ADR-RES ovarian) | TGI (OVCAR-3 ovarian) | TGI (OVCAR-4 ovarian) | TGI (OVCAR-5 ovarian) | TGI (OVCAR-8 ovarian) | TGI (PC-3 prostate) | TGI (RPMI-8226 leukemia) | TGI (RXF 393 renal) | TGI (SF-295 CNS) | TGI (SF-539 CNS) | TGI (SK-MEL-2 melanoma) | TGI (SK-MEL-28 melanoma) | TGI (SK-MEL-5 melanoma) | TGI (SK-OV-3 ovarian) | TGI (SN12C renal) | TGI (SNB-19 CNS) | TGI (SNB-75 CNS) | TGI (SW-620 colon) | TGI (T-47D breast) | TGI (TK-10 renal) | TGI (U251 CNS) | TGI (UACC-257 melanoma) | TGI (UACC-62 melanoma) | TGI (UO-31 renal)
81.3 µM: TGI (MCF7 breast)
48.2 µM: TGI (A498 renal)
85.1 µM: TGI (HS 578T breast)
inactive: GI50 (A498 renal) 13.3 µM | GI50 (A549 NSCLC) 44.7 µM | GI50 (ACHN renal) 40 µM | GI50 (BT-549 breast) 46.8 µM | GI50 (CAKI-1 renal) 43.3 µM | GI50 (CCRF-CEM leukemia) 34.7 µM | GI50 (COLO 205 colon) 29.3 µM | GI50 (DU-145 prostate) 41.3 µM | GI50 (EKVX NSCLC) 50.7 µM | GI50 (HCC-2998 colon) 22.3 µM | GI50 (HCT-15 colon) 81.9 µM | GI50 (HL-60(TB) leukemia) > 100 µM | GI50 (HOP-92 NSCLC) 65.6 µM | GI50 (HS 578T breast) 30.7 µM | GI50 (HT29 colon) 54.8 µM | GI50 (IGROV1 ovarian) 29.9 µM | GI50 (K-562 leukemia) 44.5 µM | GI50 (KM12 colon) 38.1 µM | GI50 (LOX IMVI melanoma) 25.4 µM | GI50 (MALME-3M melanoma) 48.3 µM | GI50 (MCF7 breast) 29.8 µM | GI50 (MDA-MB-435) 45.5 µM | GI50 (NCI-H226 lung) 27.6 µM | GI50 (NCI-H23 lung) 51.7 µM | GI50 (NCI-H460 lung) 30.5 µM | GI50 (NCI-H522 lung) 26.1 µM | GI50 (NCI/ADR-RES ovarian) > 100 µM | GI50 (OVCAR-3 ovarian) 31.4 µM | GI50 (OVCAR-4 ovarian) 53.7 µM | GI50 (OVCAR-5 ovarian) 45.8 µM | GI50 (OVCAR-8 ovarian) 37.8 µM | GI50 (PC-3 prostate) 70.2 µM | GI50 (RPMI-8226 leukemia) 80.8 µM | GI50 (RXF 393 renal) 44.3 µM | GI50 (SF-268 CNS) 32.7 µM | GI50 (SF-295 CNS) 49 µM | GI50 (SF-539 CNS) 23.3 µM | GI50 (SK-MEL-2 melanoma) 53.2 µM | GI50 (SK-MEL-28 melanoma) 57.1 µM | GI50 (SK-MEL-5 melanoma) 31.3 µM | GI50 (SK-OV-3 ovarian) 48.7 µM | GI50 (SN12C renal) 41 µM | GI50 (SNB-19 CNS) > 100 µM | GI50 (SNB-75 CNS) > 100 µM | GI50 (SW-620 colon) 44.3 µM | GI50 (T-47D breast) 45 µM | GI50 (TK-10 renal) 33.6 µM | GI50 (U251 CNS) 40.1 µM | GI50 (UACC-257 melanoma) 68 µM | GI50 (UACC-62 melanoma) 30 µM | GI50 (UO-31 renal) 44.1 µM
